Tested on: 997726-040-R-J2-PDC tumor spheroids, viability
Test: Anticancer human tumor 997726-040-R-J2-PDC patient-derived squamous cell lung carcinoma cell line growth inhibition [PI3K]
Conditions: spheroids with HUVEC and MSC; for IC50: curve of first compound; for viability, T/C: stronger effect = lower value
Text: Combinatorial screen of targeted agents with the PI3K inhibitors inavolisib, alpelisib, duvelisib, and copanlisib in multi-cell type tumor spheroids
A high-throughput screen of multi-cell type tumor spheroids was designed to identify active combinations of targeted small molecules and PI3K pathway inhibitors. Complex spheroids include a stromal component modeled by human endothelial cells (HUVEC) and fibroblasts modeled by human mesenchymal stem cells (MSCs). The concentration ranges selected for each drug and investigational agent were based upon clinically achievable concentrations if the clinical Cmax of the agent was known.
Compounds. The drugs and investigational agents: inavolisib (NSC800729), alpelisib (NSC765974), duvelisib (NSC772469), copanlisib (NSC816437), ipatasertib (NSC767898), afuresertib (NSC778305), talazoparib (NSC767125), sapanisertib (NSC764658), selumetinib (NSC741078), tovorafenib (DAY101, NSC766906), vemurafenib (NSC761431), ravoxertinib (NSC781343), sotorasib (NSC818433), MRTX1133 (NSC 836407), abemaciclib (NSC 768073), palbociclib (NSC758247), venetoclax (NSC 766270), SY5609 (NSC837396), enzalutamide (NSC755605), and darolutamide (NSC825331), were obtained from the National Cancer Institute (NCI) Developmental Therapeutics Program Chemical Repository. The FDA-approved anticancer drug set is available from the NCI Developmental Therapeutics Program. […] The stock solutions were prepared in dimethyl sulfoxide (DMSO, Sigma-Aldrich, St. Louis, MO, cat. D2650) at 800-fold the tested concentration and stored at -70 degrees C prior to their use. All drugs and investigational agents were tested over a range starting from a high concentration at or near the clinical Cmax and decreasing in half-log increments. If the clinical Cmax for an agent had not been determined, the highest concentration tested was 10 microM.
Cell Culture. All cells were maintained in an incubator at 37 degrees C and 5% CO2 with 95% humidity. The PDC lines were cultured according to standard operating procedures established by the NCI PDMR (https://pdmr.cancer.gov/sops/default.htm). All PDCs were thawed and cultured in Matrigel-coated flasks prepared with a working solution of 1X Ham's F-12 nutrient mix, without supplementation (Invitrogen, Waltham, MA, cat. 11765054), 100 U/mL penicillin-streptomycin (Invitrogen, cat. 15140122), and 2.5% Matrigel (Corning Inc., Corning, NY, cat. 354248) for the first three passages. The 354836-022-R-J1-PDC, 475296-252-R-J1-PDC, and 997726-040-R-J2-PDC lines were cultured in 6A media, which includes advanced DMEM/F-12 (Thermo Fisher Scientific, cat. 12634028), 10 mM HEPES (Thermo Fisher Scientific, cat. 15630080), 1X GlutaMAX supplement (Thermo Fisher Scientific, cat. 35050061), 0.1 mg/mL primocin (InvivoGen, San Diego, CA, cat. ant-pm-2), 10% defined fetal bovine serum, heat inactivated (HyClone Laboratories Inc., Logan, UT, cat. SH30070.03HI), 50% L-WRN conditioned media (ATCC, cat. CRL-3276), 1.25 mM N-Acetyl-L-cysteine (Sigma-Aldrich, cat. A9165), 10 mM nicotinamide (Sigma-Aldrich, cat. N0636), 1X B-27 supplement (Thermo Fisher Scientific, cat. 17504044), 1X N-2 supplement (Thermo Fisher Scientific, cat. 17502048), and 10 microM Y-27632 dihydrochloride (Tocris Bioscience, Bristol, United Kingdom, cat. 1254). The 624824-186-R-J2-PDC line was cultured in 6C/Colon 1B media, which includes all 6A media components plus 50 ng/mL human EGF recombinant protein (Thermo Fisher Scientific, cat. PHG0311). […]
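Note: spheroids exposed to compounds for seven days before readout.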

CC1(C)CCC(Nc2ncc(C(F)(F)F)c(-c3c[nH]c4c(P(C)(C)=O)c(C#N)ccc34)n2)CN1 (configuration not stated) + CC(Nc1ncnc2nc[nH]c12)c1cc2cccc(Cl)c2c(=O)n1-c1ccccc1
IC50 (second compound 0.0316 µM): 496 nM | IC50 (second compound 0.1 µM): 3510 nM | IC50 (second compound 0.316 µM): 3300 nM | IC50 (second compound 1 µM): 31.6 nM | IC50 (second compound 3.16 µM): < 31.6 nM | IC50 (second compound 10 µM): < 31.6 nM | viability, T/C (second compound 0.0316 µM, first compound 0.0316 µM): 48.9% | viability, T/C (second compound 0.0316 µM, first compound 0.1 µM): 45.7% | viability, T/C (second compound 0.0316 µM, first compound 0.316 µM): 50% | viability, T/C (second compound 0.0316 µM, first compound 1 µM): 59.5% | viability, T/C (second compound 0.0316 µM, first compound 3.16 µM): 65.9% | viability, T/C (second compound 0.0316 µM, first compound 10 µM): 29.6% | viability, T/C (second compound 0.1 µM, first compound 0.0316 µM): 53.8% | viability, T/C (second compound 0.1 µM, first compound 0.1 µM): 51.6% | viability, T/C (second compound 0.1 µM, first compound 0.316 µM): 49.3% | viability, T/C (second compound 0.1 µM, first compound 1 µM): 48.5% | viability, T/C (second compound 0.1 µM, first compound 3.16 µM): 55.5% | viability, T/C (second compound 0.1 µM, first compound 10 µM): 33% | viability, T/C (second compound 0.316 µM, first compound 0.0316 µM): 52.3% | viability, T/C (second compound 0.316 µM, first compound 0.1 µM): 47.6% | viability, T/C (second compound 0.316 µM, first compound 0.316 µM): 45.3% | viability, T/C (second compound 0.316 µM, first compound 1 µM): 53.3% | viability, T/C (second compound 0.316 µM, first compound 3.16 µM): 56% | viability, T/C (second compound 0.316 µM, first compound 10 µM): 26.5% | viability, T/C (second compound 1 µM, first compound 0.0316 µM): 49.2% | viability, T/C (second compound 1 µM, first compound 0.1 µM): 46.2% | viability, T/C (second compound 1 µM, first compound 0.316 µM): 45.2% | viability, T/C (second compound 1 µM, first compound 1 µM): 44.7% | viability, T/C (second compound 1 µM, first compound 3.16 µM): 52.2% | viability, T/C (second compound 1 µM, first compound 10 µM): 27.3% | viability, T/C (second compound 3.16 µM, first compound 0.0316 µM): 42.1% | viability, T/C (second compound 3.16 µM, first compound 0.1 µM): 40.7% | viability, T/C (second compound 3.16 µM, first compound 0.316 µM): 36% | viability, T/C (second compound 3.16 µM, first compound 1 µM): 39.3% | viability, T/C (second compound 3.16 µM, first compound 3.16 µM): 53.8% | viability, T/C (second compound 3.16 µM, first compound 10 µM): 21.7% | viability, T/C (second compound 10 µM, first compound 0.0316 µM): 32% | viability, T/C (second compound 10 µM, first compound 0.1 µM): 29.2% | viability, T/C (second compound 10 µM, first compound 0.316 µM): 31.5% | viability, T/C (second compound 10 µM, first compound 1 µM): 37.7% | viability, T/C (second compound 10 µM, first compound 3.16 µM): 39.8% | viability, T/C (second compound 10 µM, first compound 10 µM): 14.1%
